Measured values from patent US9981950B2, “Triazoles as NR2B receptor inhibitors” (Janssen Pharmaceuticals, Inc., priority 2014, dated 2018).

Columns and labels:
rat NR1/NR2B receptor = rat NR1/NR2B receptor (Rattus norvegicus (Rat), UniProt P35439+Q00960); test: NR2B binding assay: inhibition of specific [3H]-Ifenprodil binding to the rat NR1/NR2B receptor; settings: rat brain membranes, Hill-plot 2-parameter-model
Outline: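 Binding ran 60 min at 4 °C on washed membranes from male Wistar rat brain without cerebellum, in 5 mM Tris/1 mM EDTA, pH 7.4, and was ended by filtration through polyethylene-imine-presoaked filters. […] CP101.606 defined nonspecific binding.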

[1] = molecular target: cloned human NR1/NR2B ion channels (Homo sapiens (Human), UniProt Q05586+Q13224); test: HNR2BC: calcium influx assay on cloned human NR1/NR2B ion channels expressed in HEK cells; assay type: cell-based; settings: HEK cells hNR1/NR2B, 100 μM glutamate + 100 μM glycine, 3 parameter plot
Description: HNR2BC: Effects of Test Articles on Cloned Human NR1/NR2B Ion Channels Expressed in Mammalian Cells
The ability of test compounds to act as an antagonist of NR1/NR2B were evaluated with a calcium influx assay (Calcium 5 Assay Kit, Molecular Devices).
For the antagonist assessment, NR1/NR2B was activated with the positive control agonist (Mg^2+-free HBPS+100 μM glutamic acid+100 μM glycine). The effect of each test article to inhibit the signal was examined after agonist stimulation and compared to the positive control antagonist (MK-801).
A HEK cell line, stable transfected with hNR1/NR2B was used. This tetracycline inducible cell line is transfected with GRIN1 (GeneBank accession number NM 007327.2) and GRIN2B (GeneBank accession number NM_000834.3.). The cells were cultured in cell culture flasks with DMEM/F12 supplemented with 10% FCS, 1% PenStrep and a selection of additional antibiotics.
Forty-Eight (48) hours before the assay the cells were plated into 96-well black well, flat clear bottom microtiter plates at a density of 50000 cells/well. Twenty-Four (24) hours later the receptor expression was induced by the addition of 1 μg/ml tetracycline in the presence of 2 mM ketamine and 200 μM 7-CKA. After 24 h of receptor induction the plates were used for the assay.
The medium was removed and the cells were loaded with 200 μl loading buffer (Molecular Devices) in Mg2+-free HBPS containing 100 μM 7-CKA at 37° C. for one (1) hour.
The test compounds were then solubilized in 100% DMSO and diluted to yield eight (8) different concentrations in 100% DMSO. A 96 well drug plate was prepared by diluting with water and glycine/glutamate to a 5-fold of final test concentration. Fluorescence intensity of the cells in the plate was measured in a FlexStation using an excitation wavelength of 485 nm and an emission wavelength of 525 nm. Twenty (20) seconds after starting the recordings the compounds together with the agonists glycine (100 μM) and glutamate (100 μM) were added into the wells and the fluorescence measured for ninety (90) seconds in summary.
The IC50 values provided in the paragraph below were determined using a 3 parameter plot.

hERG-receptor = hERG-receptor (Homo sapiens (Human), UniProt Q12809); test: HERGBD: inhibition of specific 3H-Dofetilide binding to the hERG-receptor; settings: HEK cell membranes with human ERG, Hill-plot 2-parameter-model
Outline: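 Membranes from HEK cells stably expressing human ERG incubated 90 min at RT with 1.5 nmol/l 3H-dofetilide in 20 mM HEPES/0.1 mM KCl pH 7.2, inhibitor in 1% DMSO. Nonspecific binding with […] dofetilide; bound ligand separated by filtration and scintillation counted.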

Sequence of cloned human NR1/NR2B ion channels (Q13224 27-1484, other chains not shown): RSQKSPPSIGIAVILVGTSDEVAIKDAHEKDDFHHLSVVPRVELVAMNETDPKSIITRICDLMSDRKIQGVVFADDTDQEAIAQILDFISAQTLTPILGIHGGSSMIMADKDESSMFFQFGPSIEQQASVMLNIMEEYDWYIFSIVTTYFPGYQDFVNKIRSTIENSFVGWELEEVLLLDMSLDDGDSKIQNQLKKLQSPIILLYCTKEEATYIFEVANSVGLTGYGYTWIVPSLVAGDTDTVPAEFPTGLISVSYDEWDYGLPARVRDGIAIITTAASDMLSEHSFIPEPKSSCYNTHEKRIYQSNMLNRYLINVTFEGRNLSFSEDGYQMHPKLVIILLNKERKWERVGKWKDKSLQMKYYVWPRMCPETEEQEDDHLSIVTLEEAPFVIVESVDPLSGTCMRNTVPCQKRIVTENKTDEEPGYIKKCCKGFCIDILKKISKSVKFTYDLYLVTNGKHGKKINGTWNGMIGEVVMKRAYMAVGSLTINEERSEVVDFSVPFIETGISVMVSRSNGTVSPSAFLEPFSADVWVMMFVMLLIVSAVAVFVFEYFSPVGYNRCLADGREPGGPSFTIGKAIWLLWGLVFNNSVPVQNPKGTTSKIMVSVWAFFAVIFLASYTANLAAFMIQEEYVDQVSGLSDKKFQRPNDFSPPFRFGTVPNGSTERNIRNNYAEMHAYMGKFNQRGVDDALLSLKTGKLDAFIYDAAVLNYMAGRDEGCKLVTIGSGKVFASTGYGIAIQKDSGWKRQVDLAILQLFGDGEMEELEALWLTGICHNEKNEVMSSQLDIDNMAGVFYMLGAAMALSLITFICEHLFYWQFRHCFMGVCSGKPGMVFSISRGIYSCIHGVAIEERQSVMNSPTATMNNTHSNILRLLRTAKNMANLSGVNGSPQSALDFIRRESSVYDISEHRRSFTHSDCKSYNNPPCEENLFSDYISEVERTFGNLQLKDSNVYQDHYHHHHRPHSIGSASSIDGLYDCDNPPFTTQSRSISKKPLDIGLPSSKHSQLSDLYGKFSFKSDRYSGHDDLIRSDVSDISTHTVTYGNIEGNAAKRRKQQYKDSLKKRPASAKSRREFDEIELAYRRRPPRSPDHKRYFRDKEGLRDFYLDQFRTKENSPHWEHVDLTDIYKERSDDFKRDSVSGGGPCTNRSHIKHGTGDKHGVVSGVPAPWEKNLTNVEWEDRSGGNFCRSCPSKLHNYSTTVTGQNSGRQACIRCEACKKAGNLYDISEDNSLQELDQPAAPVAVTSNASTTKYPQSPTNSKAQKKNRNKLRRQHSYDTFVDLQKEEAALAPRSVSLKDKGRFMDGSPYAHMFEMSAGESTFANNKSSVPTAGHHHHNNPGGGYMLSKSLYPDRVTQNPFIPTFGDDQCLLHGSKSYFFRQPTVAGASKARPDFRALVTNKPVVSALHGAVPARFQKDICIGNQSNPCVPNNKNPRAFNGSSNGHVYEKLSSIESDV
Sequence of hERG-receptor (Q12809 whole entry): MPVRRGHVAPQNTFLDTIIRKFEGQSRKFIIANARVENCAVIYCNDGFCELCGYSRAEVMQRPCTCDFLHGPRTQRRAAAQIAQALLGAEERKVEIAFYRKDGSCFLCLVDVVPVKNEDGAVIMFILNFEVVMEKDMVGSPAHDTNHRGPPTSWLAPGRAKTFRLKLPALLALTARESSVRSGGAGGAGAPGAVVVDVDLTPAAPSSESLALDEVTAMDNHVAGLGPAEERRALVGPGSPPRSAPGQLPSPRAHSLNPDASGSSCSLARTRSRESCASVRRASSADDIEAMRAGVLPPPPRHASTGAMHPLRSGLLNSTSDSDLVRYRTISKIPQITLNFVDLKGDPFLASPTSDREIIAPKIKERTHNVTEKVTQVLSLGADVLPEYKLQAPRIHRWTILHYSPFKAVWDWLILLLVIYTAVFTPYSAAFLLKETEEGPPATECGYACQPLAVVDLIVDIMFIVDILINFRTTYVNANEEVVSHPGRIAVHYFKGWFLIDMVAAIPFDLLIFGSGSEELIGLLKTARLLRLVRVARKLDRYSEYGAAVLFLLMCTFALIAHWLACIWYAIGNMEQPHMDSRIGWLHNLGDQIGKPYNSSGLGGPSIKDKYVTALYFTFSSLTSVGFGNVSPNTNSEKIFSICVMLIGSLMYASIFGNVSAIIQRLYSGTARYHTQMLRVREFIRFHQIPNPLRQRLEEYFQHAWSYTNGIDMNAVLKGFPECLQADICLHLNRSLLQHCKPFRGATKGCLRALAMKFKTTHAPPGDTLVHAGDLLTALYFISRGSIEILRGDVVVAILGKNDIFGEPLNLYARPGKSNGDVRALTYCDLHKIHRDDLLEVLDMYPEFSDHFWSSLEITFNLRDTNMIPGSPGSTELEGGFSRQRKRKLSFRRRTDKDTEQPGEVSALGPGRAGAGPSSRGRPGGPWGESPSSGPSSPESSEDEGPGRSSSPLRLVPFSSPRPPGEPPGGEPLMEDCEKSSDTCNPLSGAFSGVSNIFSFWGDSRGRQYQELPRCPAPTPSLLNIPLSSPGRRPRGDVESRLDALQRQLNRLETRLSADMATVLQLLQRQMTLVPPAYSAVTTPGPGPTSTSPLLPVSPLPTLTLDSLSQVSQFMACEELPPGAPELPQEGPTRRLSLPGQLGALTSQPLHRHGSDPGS
Sequence of rat NR1/NR2B receptor (Q00960 27-1482, other chains not shown): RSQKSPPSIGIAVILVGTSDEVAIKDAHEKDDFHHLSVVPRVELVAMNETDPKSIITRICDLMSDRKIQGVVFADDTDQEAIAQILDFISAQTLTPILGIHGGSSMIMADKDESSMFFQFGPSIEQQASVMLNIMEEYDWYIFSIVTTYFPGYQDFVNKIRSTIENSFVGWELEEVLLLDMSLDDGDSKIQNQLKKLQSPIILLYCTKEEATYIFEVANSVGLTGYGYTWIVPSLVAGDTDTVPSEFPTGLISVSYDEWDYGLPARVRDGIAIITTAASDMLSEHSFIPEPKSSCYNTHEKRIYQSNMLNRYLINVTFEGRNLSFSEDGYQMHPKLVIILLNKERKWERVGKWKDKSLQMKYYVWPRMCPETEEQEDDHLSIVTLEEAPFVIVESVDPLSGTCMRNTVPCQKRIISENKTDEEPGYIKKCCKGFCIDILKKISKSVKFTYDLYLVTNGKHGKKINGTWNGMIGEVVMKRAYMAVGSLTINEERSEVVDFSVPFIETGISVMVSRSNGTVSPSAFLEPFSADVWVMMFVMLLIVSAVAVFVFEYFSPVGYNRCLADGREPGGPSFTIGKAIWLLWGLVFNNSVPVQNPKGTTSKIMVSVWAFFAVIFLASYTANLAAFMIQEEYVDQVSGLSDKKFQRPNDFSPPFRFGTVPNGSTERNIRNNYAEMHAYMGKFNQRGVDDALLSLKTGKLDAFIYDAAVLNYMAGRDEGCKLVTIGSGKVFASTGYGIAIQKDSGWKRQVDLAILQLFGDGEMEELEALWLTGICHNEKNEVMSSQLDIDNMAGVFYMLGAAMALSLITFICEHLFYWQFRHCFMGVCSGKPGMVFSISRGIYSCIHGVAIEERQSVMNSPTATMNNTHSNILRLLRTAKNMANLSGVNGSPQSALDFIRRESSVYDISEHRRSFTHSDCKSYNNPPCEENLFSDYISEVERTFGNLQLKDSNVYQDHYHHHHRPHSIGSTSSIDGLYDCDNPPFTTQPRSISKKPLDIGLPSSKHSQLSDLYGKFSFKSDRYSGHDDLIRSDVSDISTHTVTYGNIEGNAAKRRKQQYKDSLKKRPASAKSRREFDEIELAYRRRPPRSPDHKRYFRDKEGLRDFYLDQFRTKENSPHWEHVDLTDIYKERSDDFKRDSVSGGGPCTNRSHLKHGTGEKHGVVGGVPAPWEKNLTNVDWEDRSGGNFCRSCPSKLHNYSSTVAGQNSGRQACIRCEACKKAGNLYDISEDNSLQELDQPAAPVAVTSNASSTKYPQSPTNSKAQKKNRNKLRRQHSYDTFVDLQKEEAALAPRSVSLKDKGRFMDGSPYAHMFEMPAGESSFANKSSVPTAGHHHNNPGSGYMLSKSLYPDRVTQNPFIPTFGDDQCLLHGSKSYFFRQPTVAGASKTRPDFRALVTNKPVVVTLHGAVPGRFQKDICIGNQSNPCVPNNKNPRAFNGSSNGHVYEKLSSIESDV

Compound: CC(C)c1nccn1Cc1cn(-c2ccc(Cl)cc2)nn1 [Example 23, 1-(4-Chloro-phenyl)-4-(2-isopropyl-imidazol-1-ylmethyl)-1H-[1,2,3]triazole]
- IC50 (rat NR1/NR2B receptor): 77.4 nM
- IC50 [1]: 17.5 µM
- IC50 (hERG-receptor): 7.94 µM

Compound: Cc1nccn1Cc1cn(-c2ccc(F)c(C(F)F)c2)nn1 [Example 81, 1-(3-Difluoromethyl-4-fluoro-1-phenyl)-4-(2-methyl-imidazol-1-ylmethyl)-1H-[1,2,3]triazole]
- IC50 (rat NR1/NR2B receptor): 3.83 nM
- IC50 [1]: 3.79 µM
- IC50 (hERG-receptor): 14.3 µM

Compound: Fc1ccc(-n2cc(Cn3ccnc3C3CC3)nn2)cc1C(F)F [Example 82, 4-(2-Cyclopropyl-imidazol-1-ylmethyl)-1-(3-difluoromethyl-4-fluoro-phenyl)-1H-[1,2,3]triazole]
- IC50 (rat NR1/NR2B receptor): 16.2 nM
- IC50 [1]: 4.89 µM
- IC50 (hERG-receptor): 15.7 µM

Compound: CC(C)c1nccn1Cc1cn(-c2ccc(F)c(C(F)F)c2)nn1 [Example 84, 1-(3-Difluoromethyl-4-fluoro-phenyl)-4-(2-isopropyl-imidazol-1-ylmethyl)-1H-[1,2,3]triazole]
- IC50 (rat NR1/NR2B receptor): 11 nM
- IC50 [1]: 4.2 µM
- IC50 (hERG-receptor): 25.1 µM

Compound: Cc1nccn1Cc1cn(-c2ccc(Cl)c(OC(F)F)c2)nn1 [Example 93, 1-(4-Chloro-3-difluoromethoxy-phenyl)-4-(2-methyl-imidazol-1-ylmethyl)-1H-[1,2,3]triazole]
- IC50 (rat NR1/NR2B receptor): 1.2 nM
- IC50 [1]: 0.41 µM
- IC50 (hERG-receptor): 9.6 µM

Compound: OCCc1nccn1Cc1cn(-c2ccc(F)c(OC(F)F)c2)nn1 [Example 101, 1-(3-Difluoromethoxy-4-fluoro-phenyl)-4-[2-(2-hydroxy-ethyl)-imidazol-1-ylmethyl]-1H-[1,2,3]triazole]
- IC50 (rat NR1/NR2B receptor): 4.26 nM
- IC50 [1]: 1.65 µM
- IC50 (hERG-receptor): 36.7 µM

Compound: Cn1nccc1Cc1cn(-c2ccc(F)c(Cl)c2)nn1 [Example 109, 1-(3-Chloro-4-fluoro-phenyl)-4-(2-methyl-2H-pyrazol-3-ylmethyl)-1H-[1,2,3]triazole]
- IC50 (rat NR1/NR2B receptor): 4320 nM
- IC50 [1]: 109 µM
- IC50 (hERG-receptor): > 100 µM

Compound: Nc1nccn1Cc1cn(-c2ccc(Cl)c(C(F)F)c2)nn1 [Example 113A, 4-(2-amino-imidazol-1-ylmethyl)-1-(4-chloro-3-difluoromethyl-phenyl)-1H-[1,2,3]triazole]
- IC50 (rat NR1/NR2B receptor): 0.65 nM
- IC50 [1]: 0.84 µM
- IC50 (hERG-receptor): 3.09 µM

Compound: Nc1nccn1Cc1cn(-c2ccc(F)c(C(F)F)c2)nn1 [Example 113B, 4-(2-amino-imidazol-1-ylmethyl)-1-(4-fluoro-3-difluoromethyl-phenyl)-1H-[1,2,3]triazole]
- IC50 (rat NR1/NR2B receptor): 0.48 nM
- IC50 [1]: 0.66 µM
- IC50 (hERG-receptor): 11 µM

Compound: CC(F)(F)c1cc(-n2cc(Cn3ccnc3N)nn2)ccc1F [Example 114]
- IC50 (rat NR1/NR2B receptor): 0.51 nM
- IC50 [1]: 2.34 µM
- IC50 (hERG-receptor): 4.31 µM
